Source: US20260102359A1, “COMBINATION TREATMENT OF DERMAL AND TRANSDERMAL FIBROTIC DISEASES, DISORDERS AND ASSOCIATED PAIN AND INFLAMMATION” (ERESINA, LLC, priority 2022, published 2026)
Counter-ions that a name gives are not always drawn.

The compounds below were run on hDMFa myofibroblast cells.
`CCCc1nc(C)c2c(=O)[nH]c(-c3cc(S(=O)(=O)N4CCN(CC)CC4)ccc3OCC)nn12` [Cmpd 996, Vardenafil] was tested, and the “Compound Myofibroblast Cytotoxicity Activity” value was “++++”. For `C[C@@H](O)[C@H](N)C(=O)O` [Cmpd 614, L-Threonine], the “Compound Myofibroblast Cytotoxicity Activity” value was “+++++”. With `C=C1/C(=C\C=C2/CCC[C@]3(C)[C@@H]([C@H](C)CCCC(C)(C)O)CC[C@@H]23)C[C@@H](O)C[C@@H]1O` [Cmpd 204, Calcitriol] the “Compound Myofibroblast Cytotoxicity Activity” value was “+++”. In the case of `CCOC(=O)/C=C(C)/C=C/C=C(C)/C=C/c1c(C)cc(OC)c(C)c1C` [Cmpd 442, Etretinate], the “Compound Myofibroblast Cytotoxicity Activity” value is reported as “+++”. `C=C1CC[C@H]2O[C@]2(C)CC[C@@H]2[C@@H]1CC2(C)C` [Cmpd 222, Caryophyllene Oxide] was tested, and the “Compound Myofibroblast Cytotoxicity Activity” value was “++”. `O=[N+]([O-])O[C@@H]1CO[C@H]2[C@@H]1OC[C@@H]2O` [Cmpd 540, Isosorbide 5-mononitrate] was tested, and the “Compound Myofibroblast Cytotoxicity Activity” value was “++”. For `OC1OC[C@H](O)[C@H](O)[C@H]1O` (mixture of isomers) [Cmpd 560, L-Arabinose], the “Compound Myofibroblast Cytotoxicity Activity” value was “++++”. `CC(=O)c1c(C)c2cnc(Nc3ccc(N4CCNCC4)cn3)nc2n(C2CCCC2)c1=O.O=S(=O)(O)CCO` [Cmpd 753, Palbociclib (PD0332991) Isethionate] was tested, and the “Compound Myofibroblast Cytotoxicity Activity” value was “+++++”. `Br.NCCc1cc(O)c(O)cc1O` [Cmpd 72] was tested, and the “Compound Myofibroblast Cytotoxicity Activity” value was “++++”. `CN(C)CCOc1ccc(/C(=C(/CCCl)c2ccccc2)c2ccccc2)cc1` [Cmpd 959, Toremifene Citrate] was tested, and the “Compound Myofibroblast Cytotoxicity Activity” value was “+++”. With `COc1cc(C(=O)NCc2ccc(OCCN(C)C)cc2)cc(OC)c1OC.Cl` [Cmpd 974, Trimethobenzamide hydrochloride] the “Compound Myofibroblast Cytotoxicity Activity” value was “++”. For `CCCC(CCC)C(=O)O` [Cmpd 993, Valproic acid], the “Compound Myofibroblast Cytotoxicity Activity” value was “+++”. For `O=C(CO)[C@@H](O)[C@H](O)[C@H](O)CO` [Cmpd 305, D-(−)-Fructose], the “Compound Myofibroblast Cytotoxicity Activity” value was “++”. In the case of `COC(=O)c1ccc2c(c1)NC(=O)/C2=C(\Nc1ccc(N(C)C(=O)CN2CCN(C)CC2)cc1)c1ccccc1` [Cmpd 716, Nintedanib (BIBF 1120)], the “Compound Myofibroblast Cytotoxicity Activity” value is reported as “++++”. In the case of `N=C(N/N=C/c1ccc(Cl)cc1)N/N=C/c1ccc(Cl)cc1` [Cmpd 838, Robenidine hydrochloride], the “Compound Myofibroblast Cytotoxicity Activity” value is reported as “++”. With `CC(=O)O.CC(=O)O.NC(=N\CCCCCC/N=C(N)/N=C(\N)Nc1ccc(Cl)cc1)/N=C(\N)Nc1ccc(Cl)cc1` [Cmpd 247, Chlorhexidine diacetate] the “Compound Myofibroblast Cytotoxicity Activity” value was “+++++”. `Cl.N[C@H](C=O)[C@@H](O)[C@H](O)[C@H](O)CO` [Cmpd 23, (2S,3R,4S,5R)-2-Amino-3,4,5,6-tetrahydroxyhexanal hydrochloride] was tested, and the “Compound Myofibroblast Cytotoxicity Activity” value was “++”. For `NCCCNCCCCNCCCN` [Cmpd 887, Spermine], the “Compound Myofibroblast Cytotoxicity Activity” value was “++”. `CCCCCCCCCCCCCCO` [Cmpd 43, 1-Tetradecanol] was tested, and the “Compound Myofibroblast Cytotoxicity Activity” value was “+”. With `CC(C)(C)c1cc(NC(=O)Nc2ccc(-c3cn4c(n3)sc3cc(OCCN5CCOCC5)ccc34)cc2)no1` [Cmpd 815, Quizartinib (AC220)] the “Compound Myofibroblast Cytotoxicity Activity” value was “++++”. In the case of `COc1ccc2cc3[n+](cc2c1OC)CCc1cc2c(cc1-3)OCO2` [Cmpd 173, Berberine Sulfate], the “Compound Myofibroblast Cytotoxicity Activity” value is reported as “++”. With `CN(C/C=C/c1ccccc1)Cc1cccc2ccccc12` [Cmpd 696, Naftifine HCl] the “Compound Myofibroblast Cytotoxicity Activity” value was “++”. In the case of `CNCCC(Oc1ccc(C(F)(F)F)cc1)c1ccccc1` (stereo not shown) [Cmpd 464, Fluoxetine HCl], the “Compound Myofibroblast Cytotoxicity Activity” value is reported as “+++”. With `COc1cccc2c1cc([N+](=O)[O-])c1c(C(=O)O)cc3c(c12)OCO3` [Cmpd 130, Aristolochic Acid A] the “Compound Myofibroblast Cytotoxicity Activity” value was “++”. `O=C[C@H](O)[C@@H](O)[C@H](O[C@@H]1O[C@H](CO)[C@@H](O)[C@H](O)[C@H]1O)[C@H](O)CO` [Cmpd 239, Cellobiose] was tested, and the “Compound Myofibroblast Cytotoxicity Activity” value was “+++”. With `CC(C)NCC(O)COc1ccc(CC(N)=O)cc1` (racemic) [Cmpd 14, (±)-Atenolol] the “Compound Myofibroblast Cytotoxicity Activity” value was “+++”. In the case of `NCc1ccc(C(=O)O)cc1` [Cmpd 56], the “Compound Myofibroblast Cytotoxicity Activity” value is reported as “++”. With `O=C(O)Cc1cc(I)c(Oc2ccc(O)c(I)c2)c(I)c1` [Cmpd 949, Tiratricol] the “Compound Myofibroblast Cytotoxicity Activity” value was “+++”. For `CC[C@]1(O)C[C@@H]2CN(CCc3c([nH]c4ccccc34)[C@@](C(=O)OC)(c3cc4c(cc3OC)N(C)[C@H]3[C@@](O)(C(=O)OC)[C@H](OC(C)=O)[C@]5(CC)C=CCN6CC[C@]43[C@@H]65)C2)C1` [Cmpd 1002, Vinblastine sulfate], the “Compound Myofibroblast Cytotoxicity Activity” value was “++”. For `Cc1nnc(NS(=O)(=O)c2ccc(N)cc2)s1` [Cmpd 896, Sulfamethizole], the “Compound Myofibroblast Cytotoxicity Activity” value was “++++”. In the case of `CC(C)(C)c1nc(-c2cccc(NS(=O)(=O)c3c(F)cccc3F)c2F)c(-c2ccnc(N)n2)s1.CS(=O)(=O)O` [Cmpd 311, Dabrafenib Mesylate (GSK-2118436)], the “Compound Myofibroblast Cytotoxicity Activity” value is reported as “++”. `O=C(O[C@@H]1C[C@@H]2C[C@H]3C[C@H](C1)N2CC3=O)c1c[nH]c2ccccc12` [Cmpd 376, Dolasetron] was tested, and the “Compound Myofibroblast Cytotoxicity Activity” value was “++”. With `Cl.Cl.OCCN1CCN(CCCN2c3ccccc3Sc3ccc(C(F)(F)F)cc32)CC1` [Cmpd 465, Fluphenazine dihydrochloride] the “Compound Myofibroblast Cytotoxicity Activity” value was “+++++”. With `N[C@@H](Cc1c[nH]cn1)C(=O)O` [Cmpd 586, L-Histidine] the “Compound Myofibroblast Cytotoxicity Activity” value was “+”. With `Cc1ccc(S(=O)(=O)/C=C/C#N)cc1` [Cmpd 158, Bay 11-7821(BAY 11-7082)] the “Compound Myofibroblast Cytotoxicity Activity” value was “+++++”. With `COc1cc(NC(C)CCCN)c2ncccc2c1.O=P(O)(O)O.O=P(O)(O)O` (stereo not shown) [Cmpd 796, Primaquine Diphosphate] the “Compound Myofibroblast Cytotoxicity Activity” value was “+++”. `Cc1ccc(C(C)C)cc1O` [Cmpd 220, Carvacrol] was tested, and the “Compound Myofibroblast Cytotoxicity Activity” value was “++”. In the case of `CCC1(C)CC(=O)NC1=O` (stereo not shown) [Cmpd 436, Ethosuximide], the “Compound Myofibroblast Cytotoxicity Activity” value is reported as “++”. In the case of `CC(C)NCC(O)c1ccc(NS(C)(=O)=O)cc1` (stereo not shown) [Cmpd 883, Sotalol hydrochloride], the “Compound Myofibroblast Cytotoxicity Activity” value is reported as “+++”. With `O=S(=O)([O-])CCCS(=O)(=O)[O-].[Na+].[Na+]` [Cmpd 423, Eprodisate disodium] the “Compound Myofibroblast Cytotoxicity Activity” value was “++”. In the case of `C[C@@H](O[C@H]1OCCN(Cc2n[nH]c(=O)[nH]2)[C@H]1c1ccc(F)cc1)c1cc(C(F)(F)F)cc(C(F)(F)F)c1` [Cmpd 126, Aprepitant], the “Compound Myofibroblast Cytotoxicity Activity” value is reported as “++++”. In the case of `COC(=O)C1=C(C)NC(C)=C(C(=O)OC2CCCN(Cc3ccccc3)C2)C1c1cccc([N+](=O)[O-])c1` (stereo not shown) [Cmpd 161, Benidipine HCl], the “Compound Myofibroblast Cytotoxicity Activity” value is reported as “++”. For `O=C1NC(=O)C(c2ccccc2)(c2ccccc2)N1` [Cmpd 778, Phenytoin sodium], the “Compound Myofibroblast Cytotoxicity Activity” value was “++”. `NC(=O)c1cn(Cc2c(F)cccc2F)nn1` [Cmpd 843, Rufinamide] was tested, and the “Compound Myofibroblast Cytotoxicity Activity” value was “+++”. For `CC(=O)O.Cc1cc2c(C(C)C)c(O)c(O)c(C=O)c2c(O)c1-c1c(C)cc2c(C(C)C)c(O)c(O)c(C=O)c2c1O` [Cmpd 80, Acetate gossypol], the “Compound Myofibroblast Cytotoxicity Activity” value was “+++++”. `O=C(/C=C/c1ccc(O)c(O)c1)OCCc1ccccc1` [Cmpd 201] was tested, and the “Compound Myofibroblast Cytotoxicity Activity” value was “++”. In the case of `Cl.Cl.Fc1ccc(C(c2ccc(F)cc2)N2CCN(C/C=C/c3ccccc3)CC2)cc1` [Cmpd 460, Flunarizine 2HCl], the “Compound Myofibroblast Cytotoxicity Activity” value is reported as “++”. For `C=C(C)[C@H]1CC=C(C)C(=O)C1` [Cmpd 28, (S)-(+)-Carvone], the “Compound Myofibroblast Cytotoxicity Activity” value was “++”. For `CC[C@H](NC(=O)[C@H](C)NC)C(=O)N1C[C@@H](O)C[C@H]1Cc1c(-c2[nH]c3cc(F)ccc3c2C[C@@H]2C[C@H](O)CN2C(=O)[C@H](CC)NC(=O)[C@H](C)NC)[nH]c2cc(F)ccc12` [Cmpd 184, Birinapant (TL32711)], the “Compound Myofibroblast Cytotoxicity Activity” value was “++”. In the case of `N[C@@H](CCC(=O)O)C(=O)[O-].[Na+]` [Cmpd 584, L-Glutamic acid monosodium salt], the “Compound Myofibroblast Cytotoxicity Activity” value is reported as “++”. `O=P([O-])([O-])O.[Na+].[Na+]` [Cmpd 874, Sodium phosphate dibasic] was tested, and the “Compound Myofibroblast Cytotoxicity Activity” value was “++++”. For `CC(=O)Nc1ccc(C(=O)O)cc1.CC(=O)Nc1ccc(C(=O)O)cc1.CC(=O)Nc1ccc(C(=O)O)cc1.CC(O)CN(C)C.CC(O)CN(C)C.CC(O)CN(C)C.O=c1[nH]cnc2c1ncn2[C@@H]1O[C@H](CO)[C@@H](O)[C@H]1O` [Cmpd 538, Isoprinosine], the “Compound Myofibroblast Cytotoxicity Activity” value was “++”. With `COc1ccc2cc([C@H](C)C(=O)O)ccc2c1` [Cmpd 32, (S)-Naproxen] the “Compound Myofibroblast Cytotoxicity Activity” value was “++”. `Oc1ccccc1O` [Cmpd 810, Pyrocatechol] was tested, and the “Compound Myofibroblast Cytotoxicity Activity” value was “++”. In the case of `Clc1ccc(COC(Cn2ccnc2)c2ccc(Cl)cc2Cl)c(Cl)c1` (stereo not shown) [Cmpd 671, Miconazole], the “Compound Myofibroblast Cytotoxicity Activity” value is reported as “+++”. For `CS(=O)(=O)O.C[C@H]1COc2c(C3(N)CC3)c(F)cc3c(=O)c(C(=O)O)cn1c23` [Cmpd 760, Pazufloxacin mesylate], the “Compound Myofibroblast Cytotoxicity Activity” value was “+++”. `COc1ccc2[n-]c([S+]([O-])Cc3ncc(C)c(OC)c3C)nc2c1.COc1ccc2[n-]c([S+]([O-])Cc3ncc(C)c(OC)c3C)nc2c1.[Mg+2]` (stereo not shown) [Cmpd 427, Esomeprazole Magnesium] was tested, and the “Compound Myofibroblast Cytotoxicity Activity” value was “++”. `CC(COc1ccccc1)N(CCCl)Cc1ccccc1.Cl` (stereo not shown) [Cmpd 776, Phenoxybenzamine HCl] was tested, and the “Compound Myofibroblast Cytotoxicity Activity” value was “++”. For `Cc1cn(-c2cc(NC(=O)c3ccc(C)c(Nc4nccc(-c5cnccn5)n4)c3)cc(C(F)(F)F)c2)cn1` [Cmpd 818, Radotinib(IY-5511)], the “Compound Myofibroblast Cytotoxicity Activity” value was “++++”. With `CC(NCCC(c1ccccc1)c1ccccc1)c1ccccc1` (stereo not shown) [Cmpd 450, Fendiline (hydrochloride)] the “Compound Myofibroblast Cytotoxicity Activity” value was “+++”. For `CSCCC(N)C(=O)O` (racemic) [Cmpd 369, DL-Methionine], the “Compound Myofibroblast Cytotoxicity Activity” value was “++”. In the case of `C[n+]1ccccc1/C=N/O` [Cmpd 792, Pralidoxime Iodide], the “Compound Myofibroblast Cytotoxicity Activity” value is reported as “++”. `CC(C)NCC(O)c1ccc(O)c(O)c1` (stereo not shown) [Cmpd 539, Isoproterenol sulfate dihydrate] was tested, and the “Compound Myofibroblast Cytotoxicity Activity” value was “++”. With `Clc1ccc(COC(Cn2ccnc2)c2ccc(Cl)cc2Cl)cc1` (stereo not shown) [Cmpd 403, Econazole nitrate] the “Compound Myofibroblast Cytotoxicity Activity” value was “+++”.
